According to patent US20250215030A1, “STAT MODULATORS AND USES THEREOF” (Recludix Pharma, Inc., priority 2022, published 2025):

Legend:
pSTAT3 (pY705-STAT3) = molecular target: T1, pSTAT3 (pY705-STAT3) (Homo sapiens, UniProt P40763); assay: MSD-pSTAT-PBMC Assay (pSTAT3, IL-6 stimulated); assay type: cell-based; details: PBMC, compound 3 hrs, then 10 ng/mL IL-6 for 10 min; MSD pY705-STAT3; read-out: pSTAT3
T1 construct: host or cells: cryopreserved PBMC
Method in brief: (§1)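 Phospho-STAT levels captured on anti-STAT3 or anti-STAT6 plates and detected with anti-pY705 or anti-pY641 antibodies (MSD read-out). Cryopreserved human PBMCs received compound for 3 h before a 10 min pulse of IL-6 (10 ng/mL, STAT3) or IL-4 (1 ng/mL, STAT6). IC50 fitted after unstimulated-background subtraction and DMSO normalization.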

pSTAT6 (pY641-STAT6) = molecular target: T2, pSTAT6 (pY641-STAT6) (Homo sapiens, UniProt P42226); assay: MSD-pSTAT-PBMC Assay (pSTAT6, IL-4 stimulated); assay type: cell-based; details: compound 3 hrs, then 1 ng/mL IL-4 for 10 min
T2 construct: host or cells: cryopreserved PBMC
T2 sequence (P42226 1-847): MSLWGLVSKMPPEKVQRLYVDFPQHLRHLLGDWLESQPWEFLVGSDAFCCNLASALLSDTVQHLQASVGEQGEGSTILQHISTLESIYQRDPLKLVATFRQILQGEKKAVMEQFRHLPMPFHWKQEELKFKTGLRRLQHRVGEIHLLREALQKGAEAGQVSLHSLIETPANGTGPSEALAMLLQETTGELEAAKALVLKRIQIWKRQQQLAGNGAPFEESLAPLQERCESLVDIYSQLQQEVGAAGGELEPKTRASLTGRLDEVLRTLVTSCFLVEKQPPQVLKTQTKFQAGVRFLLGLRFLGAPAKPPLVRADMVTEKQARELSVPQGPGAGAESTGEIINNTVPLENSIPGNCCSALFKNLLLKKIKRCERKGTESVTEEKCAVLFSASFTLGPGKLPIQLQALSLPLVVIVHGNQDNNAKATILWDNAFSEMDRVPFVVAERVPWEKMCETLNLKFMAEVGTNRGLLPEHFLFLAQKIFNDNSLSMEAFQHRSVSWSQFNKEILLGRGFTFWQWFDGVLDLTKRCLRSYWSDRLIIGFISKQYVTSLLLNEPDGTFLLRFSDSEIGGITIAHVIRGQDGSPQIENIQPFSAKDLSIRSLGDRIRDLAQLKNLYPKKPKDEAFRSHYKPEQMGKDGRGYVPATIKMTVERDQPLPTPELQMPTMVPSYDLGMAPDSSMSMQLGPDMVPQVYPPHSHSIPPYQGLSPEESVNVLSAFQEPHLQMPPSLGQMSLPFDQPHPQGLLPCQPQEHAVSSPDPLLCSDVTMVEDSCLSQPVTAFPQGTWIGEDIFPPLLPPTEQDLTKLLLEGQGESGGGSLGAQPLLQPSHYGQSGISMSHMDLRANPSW
Method in brief: as §1

T1 sequence (P40763 whole entry): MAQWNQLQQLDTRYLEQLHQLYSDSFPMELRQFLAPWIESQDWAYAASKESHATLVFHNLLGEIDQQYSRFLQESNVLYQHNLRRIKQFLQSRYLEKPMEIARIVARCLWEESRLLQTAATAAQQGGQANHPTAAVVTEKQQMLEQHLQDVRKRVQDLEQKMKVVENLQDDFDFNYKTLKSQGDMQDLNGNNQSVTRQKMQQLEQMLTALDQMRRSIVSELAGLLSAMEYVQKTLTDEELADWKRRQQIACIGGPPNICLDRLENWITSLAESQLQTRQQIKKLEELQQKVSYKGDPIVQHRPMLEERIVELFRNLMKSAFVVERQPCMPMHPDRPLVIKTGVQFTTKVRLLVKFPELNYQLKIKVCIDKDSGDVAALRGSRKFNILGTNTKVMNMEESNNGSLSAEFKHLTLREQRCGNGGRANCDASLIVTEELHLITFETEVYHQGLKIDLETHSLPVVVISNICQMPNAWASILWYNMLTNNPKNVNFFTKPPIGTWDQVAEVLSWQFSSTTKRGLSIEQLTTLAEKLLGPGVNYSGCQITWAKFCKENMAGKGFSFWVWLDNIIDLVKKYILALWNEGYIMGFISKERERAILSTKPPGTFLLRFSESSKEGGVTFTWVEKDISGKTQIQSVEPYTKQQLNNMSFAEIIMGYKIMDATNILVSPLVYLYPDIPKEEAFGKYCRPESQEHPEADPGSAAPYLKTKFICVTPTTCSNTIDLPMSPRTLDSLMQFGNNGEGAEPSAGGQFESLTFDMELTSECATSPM

IC50 (pSTAT3 (pY705-STAT3))	IC50 (pSTAT6 (pY641-STAT6))	SMILES
100 to 1000 nM	> 3000 nM	COCCCOC(=O)OCOP(=O)(OCOC(=O)OCCCOC)C(F)(F)c1ccc2sc(C(=O)N[C@H]3C[C@@H]4C[C@@H]4C[C@H]4CC[C@@H](C(=O)N5CC(C(=O)N6CCOCC6)C5)N4C3=O)cc2c1 [Compound 169, (((difluoro(2-(((3S,6S,7aS, 8aR,9aR)-3-(3-(morpholine-4-carbonyl)azetidine-1-carbonyl)-5-oxodecahydro-1H-cyclopropa [d]pyrrolo[1,2-a]azocin-6-yl)carbamoyl)benzo[b]thiophen-5-yl)methyl)phosphoryl)bis(oxy)) bis(methylene) bis(3-methoxypropyl) bis(carbonate)]
1000 to 3000 nM	> 3000 nM	CC(C)(C)OC(=O)OCOP(=O)(OCOC(=O)OC(C)(C)C)C(F)(F)c1ccc2sc(C(=O)N[C@H]3C[C@@H]4C[C@@H]4C[C@H]4CC[C@@H](C(=O)N5CC(C(=O)N6CCOCC6)C5)N4C3=O)cc2c1 [Compound 170, di-tert-butyl ((((difluoro(2-(((3S,6S,7aS, 8aR,9aR)-3-(3-(morpholine-4-carbonyl)azetidine-1-carbonyl)-5-oxodecahydro-1H-cyclopropa[d]pyrrolo[1,2-a]azocin-6-yl)carbamoyl)benzo[b]thiophen-5-yl)methyl)phosphoryl)bis(oxy))bis(methylene)) bis(carbonate)]
< 100 nM	> 3000 nM	CC(C)(C)C(=O)SCCOP(=O)(OCCSC(=O)C(C)(C)C)C(F)(F)c1ccc2sc(C(=O)N[C@H]3C[C@@H]4C[C@@H]4C[C@H]4CC[C@@H](C(=O)N5CC(C(=O)N6CCOCC6)C5)N4C3=O)cc2c1 [Compound 171, S,S′-((((difluoro(2-(((3S,6S,7aS, 8aR,9aR)-3-(3-(morpholine-4-carbonyl)azetidine-1-carbonyl)-5-oxodecahydro-1H-cyclopropa[d]pyrrolo[1,2-a]azocin-6-yl)carbamoyl)benzo[b]thiophen-5-yl)methyl)phosphoryl)bis(oxy))bis(ethane-2,1-diyl)) bis(2,2-dimethyl-propanethioate)]
100 to 1000 nM	> 3000 nM	COCCOC(=O)OCOP(=O)(OCOC(=O)OCCOC)C(F)(F)c1ccc2sc(C(=O)N[C@H]3C[C@@H]4C[C@@H]4C[C@H]4CC[C@@H](C(=O)N5CC(C(=O)N6CCOCC6)C5)N4C3=O)cc2c1 [Compound 172, (((difluoro(2-(((3S,6S,7aS, 8aR,9aR)-3-(3-(morpholine-4-carbonyl)azetidine-1-carbonyl)-5-oxodecahydro-1H-cyclopropa [d]pyrrolo[1,2-a]azocin-6-yl)carbamoyl)benzo[b]thiophen-5-yl)methyl)phosphoryl)bis(oxy)) bis(methylene) bis(2-methoxyethyl) bis(carbonate)]
100 to 1000 nM	> 3000 nM	CC(C)(C)C(=O)OCOP(=O)(OCOC(=O)C(C)(C)C)C(F)(F)c1ccc2sc(C(=O)N[C@H]3C[C@@H]4C[C@@H]4C[C@H]4CC[C@@H](C(=O)Nc5ccc(-c6ccccc6)cc5)N4C3=O)cc2c1 [Compound 175, ((((2-(((3S,6S,7aS, 8aR,9aR)-3-([1,1′-biphenyl]-4-ylcarbamoyl)-5-oxodecahydro-1H-cyclopropa[d]pyrrolo[1,2-a]azocin-6-yl)carbamoyl)benzo[b]thiophen-5-yl)difluoro-methyl)phosphoryl)bis(oxy)) bis(methylene) bis(2,2-dimethyl-propanoate)]
< 100 nM	> 3000 nM	CC(C)OC(=O)OCOP(=O)(OCOC(=O)OC(C)C)C(F)(F)c1ccc2sc(C(=O)N[C@H]3C[C@@H]4C[C@@H]4C[C@H]4CC[C@@H](C(=O)N5CC(C(=O)N6CCOCC6)C5)N4C3=O)cc2c1 [Compound 176, (((difluoro(2-(((3S,6S,7aS, 8aR,9aR)-3-(3-(morpholine-4-carbonyl)azetidine-1-carbonyl)-5-oxodecahydro-1H-cyclopropa[d]pyrrolo[1,2-a]azocin-6-yl)carbamoyl)benzo[b]thiophen-5-yl)methyl)phosphoryl)bis(oxy)) bis(methylene) diisopropyl bis(carbonate)]
> 3000 nM	> 3000 nM	CCOC(=O)CCCOP(=O)(OCCCC(=O)OCC)C(F)(F)c1ccc2sc(C(=O)N[C@H]3C[C@@H]4C[C@@H]4C[C@H]4CC[C@@H](C(=O)N5CC(C(=O)N6CCOCC6)C5)N4C3=O)cc2c1 [Compound 177, diethyl 4,4′-(((difluoro(2-(((3S,6S,7aS, 8aR,9aR)-3-(3-(morpholine-4-carbonyl)azetidine-1-carbonyl)-5-oxodecahydro-1H-cyclopropa[d]pyrrolo[1,2-a]azocin-6-yl)carbamoyl)benzo[b]thiophen-5-yl)methyl)phosphoryl)bis(oxy)) dibutyrate]
< 100 nM	100 to 1000 nM	CCCC(=O)SCCOP(=O)(OCCSC(=O)CCC)C(F)(F)c1ccc2sc(C(=O)N[C@H]3C[C@@H]4C[C@@H]4C[C@H]4CC[C@@H](C(=O)N5CC(C(=O)N6CCOCC6)C5)N4C3=O)cc2c1 [Compound 178, S,S′-((((difluoro(2-(((3S,6S,7aS, 8aR,9aR)-3-(3-(morpholine-4-carbonyl)azetidine-1-carbonyl)-5-oxodecahydro-1H-cyclopropa[d]pyrrolo[1,2-a]azocin-6-yl)carbamoyl)benzo[b]thiophen-5-yl)methyl)phosphoryl)bis(oxy))bis(ethane-2,1-diyl)) dibutane-thioate]
< 100 nM	> 3000 nM	CC(C)CC(=O)SCCOP(=O)(OCCSC(=O)CC(C)C)C(F)(F)c1ccc2sc(C(=O)N[C@H]3C[C@H]4C[C@H]4C[C@H]4CC[C@@H](C(=O)N5CC(n6ccnc6)C5)N4C3=O)cc2c1 [Compound 179, S,S′-(((((2-(((3S,6S,7aR, 8aS,9aR)-3-(3-(1H-imidazol-1-yl)azetidine-1-carbonyl)-5-oxodecahydro-1H-cyclopropa[d]pyrrolo[1,2-a]azocin-6-yl)carbamoyl)benzo[b]thiophen-5-yl)difluoromethyl)phosphoryl)bis(oxy))bis(ethane-2,1-diyl)) bis(3-methylbutane thioate)]
< 100 nM	> 3000 nM	CC(C)(C)C(=O)SCCOP(=O)(OCCSC(=O)C(C)(C)C)C(F)(F)c1ccc2sc(C(=O)NC3CC4CC4CC4CCC(C(=O)N5CC(n6ccnc6)C5)N4C3=O)cc2c1 [Compound 180, S,S′-(((((2-(((3S,6S,7aR, 8aS,9aR)-3-(3-(1H-imidazol-1-yl)azetidine-1-carbonyl)-5-oxodecahydro-1H-cyclopropa[d]pyrrolo[1,2-a]azocin-6-yl)carbamoyl)benzo[b]thiophen-5-yl)difluoromethyl)phosphoryl)bis(oxy))bis(ethane-2,1-diyl)) bis(2,2-dimethyl-propanethioate)]
< 100 nM	> 3000 nM	CC(C)(C)C(=O)SCCOP(=O)(OCCSC(=O)C(C)(C)C)C(F)(F)c1ccc2sc(C(=O)N[C@H]3C[C@@H]4C[C@@H]4C[C@H]4CC[C@@H](C(=O)N5CC(n6ccnc6)C5)N4C3=O)cc2c1 [Compound 181, S,S′-(((((2-(((3S,6S,7aS, 8aR,9aR)-3-(3-(1H-imidazol-1-yl)azetidine-1-carbonyl)-5-oxodecahydro-1H-cyclopropa[d]pyrrolo[1,2-a]azocin-6-yl)carbamoyl)benzo[b]thiophen-5-yl)difluoromethyl)phosphoryl)bis(oxy))bis(ethane-2,1-diyl)) bis(2,2-dimethyl-propanethioate)]

SMILES	IC50 (pSTAT3 (pY705-STAT3))	IC50 (pSTAT6 (pY641-STAT6))
C[C@H](NP(=O)(Oc1ccccc1)C(F)(F)c1ccc2sc(C(=O)N[C@H]3C[C@@H]4C[C@@H]4C[C@H]4CC[C@@H](C(=O)N5CC(C(=O)N6CCOCC6)C5)N4C3=O)cc2c1)C(=O)OCc1ccccc1 (stereo partly drawn) [Compound 173, benzyl ((difluoro(2-(((3S,6S,7aS, 8aR,9aR)-3-(3-(morpholine-4-carbonyl)azetidine-1-carbonyl)-5-oxodecahydro-1H-cyclopropa[d]pyrrolo[1,2-a]azocin-6-yl)carbamoyl)benzo[b]thiophen-5-yl)methyl) (phenoxy)phosphoryl)-L-alaninate]	1000 to 3000 nM	> 3000 nM
CC(C)OC(=O)[C@@H](C)CNP(=O)(Oc1ccccc1)C(F)(F)c1ccc2sc(C(=O)N[C@H]3C[C@@H]4C[C@@H]4C[C@H]4CC[C@@H](C(=O)N5CC(C(=O)N6CCOCC6)C5)N4C3=O)cc2c1 (stereo partly drawn) [Compound 184, isopropyl (2S)-3-(((difluoro(2-(((3S,6S,7aS, 8aR,9aR)-3-(3-(morpholine-4-carbonyl)azetidine-1-carbonyl)-5-oxodecahydro-1H-cyclopropa [d]pyrrolo[1,2-a]azocin-6-yl)carbamoyl)benzo[b]thiophen-5-yl)methyl) (phenoxy)phosphoryl)amino)-2-methyl-propanoate]	> 3000 nM	> 3000 nM
